The text below walks through data of ChEMBL document CHEMBL5579815, “Novel angiogenesis inhibitors with superoxide anion radical amplification effect: Surmounting the Achilles' heels of angiogenesis inhibitors and photosensitizers” (Eur J Med Chem, 2024).

The subject of assay [1] is SK-MEL-28. In words: Cytotoxicity against human SK-MEL-28 cells assessed as reduction in cell viability at 0.008 to 1 uM preincubated for 24 hrs under normoxic condition followed by media removal and irradiated with 650 nm 10 mW/cm2 light for 15 mins under normoxic condition prior to media replacement and measured after 24 hrs by MTT assay. Format: functional, cell-based. As to conditions: dose 0.008-1 µM. Background: Formazan colour is commonly taken as a measure of viable cells.

Assay [2] in a line: Induction of ROS generation in methanol solution assessed as increase in singlet oxygen level by measuring reduction in ABDA absorption peak at 10 uM irradiated with 650 nm 10 mW/cm2 light for upto 9 mins by ABDA probe based UV-vis absorption spectra analysis. Format: functional.
Assay [3] in a line: Induction of ROS generation in methanol solution assessed as reduction in DPBF absorption peak at 10 uM irradiated with 650 nm 10 mW/cm2 light for upto 9 mins by DPBF probe based UV-vis absorption spectra analysis. Format: functional.
In assay [4] the test system is SK-MEL-28. In words: Cytotoxicity against human SK-MEL-28 cells assessed as reduction in cell viability at 0.008 to 1 uM preincubated for 24 hrs under hypoxic condition followed by media removal and irradiated with 650 nm 10 mW/cm2 light for 15 mins under hypoxic condition prior to media replacement and measured after 24 hrs by MTT assay. It counts as functional, cell-based. As to conditions: dose 0.008-1 µM.

Assay [5] can be described thus: Induction of ROS generation in methanol solution assessed as increase in superoxide anion radical level by measuring increase in DHR123 fluorescence intensity at 10 uM irradiated with 650 nm 10 mW/cm2 light for upto 15 mins by DHR123 probe based fluorescence spectra analysis. Format: functional.
The subject of assay [6] is SK-MEL-28. In words: Cytotoxicity against human SK-MEL-28 cells assessed as reduction in cell viability by MTT assay. Format: functional, cell-based.
Assay [7] relates to SK-MEL-28. In words: Cytotoxicity against human SK-MEL-28 cells assessed as reduction in cell viability preincubated for 24 hrs under hypoxic condition followed by media removal and irradiated with 650 nm 10 mW/cm2 light for 15 mins under hypoxic condition prior to media replacement and measured after 24 hrs by MTT assay. It counts as functional, cell-based. As to conditions: SK-MEL-28, light or radiation study.

Assay [8] relates to SK-MEL-28. In words: Cytotoxicity against human SK-MEL-28 cells assessed as reduction in cell viability preincubated for 24 hrs under normoxic condition followed by media removal and irradiated with 650 nm 10 mW/cm2 light for 15 mins under normoxic condition prior to media replacement and measured after 24 hrs by MTT assay. Format: functional, cell-based. As to conditions: SK-MEL-28, light or radiation study.

The structures appear in SMILES notation. The source made the active and inactive calls. The rule behind the calls is not given here.

Consider `CCN(CC)c1ccc2nc3c4ccccc4/c(=N\CCCCCC(=O)NCCNC(=O)c4cc(Oc5ccc(NC(=O)Nc6ccc(Cl)c(C(F)(F)F)c6)cc5)ccn4)cc-3sc2c1`, for which the result in assay [1], in assay [3], in assay [4] and in assay [5] was Active. In addition, the result in assay [2] was inactive.
On to `CCN(CC)c1ccc2nc3c4ccccc4/c(=N\CCCCCCn4cc(CCCCNC(=O)c5cc(Oc6ccc(NC(=O)Nc7ccc(Cl)c(C(F)(F)F)c7)cc6)ccn5)nn4)cc-3sc2c1`, for which the result in assay [1], in assay [3], in assay [4] and in assay [5] was Active. Besides, the outcome in assay [2] was inactive.
In the case of `CCN(CC)c1ccc2nc3c4ccccc4/c(=N\CCCCCCN=[N+]=[N-])cc-3sc2c1`, in assay [2], the result was inactive. Also, the result in assay [3] and in assay [5] was Active.
Take `CCN(CC)c1ccc2nc3c4ccccc4/c(=N\CCCCCCn4cc(CNC(=O)c5cc(Oc6ccc(NC(=O)Nc7ccc(Cl)c(C(F)(F)F)c7)cc6)ccn5)nn4)cc-3sc2c1`: the outcome in assay [1], in assay [3], in assay [4] and in assay [5] was Active. For the same compound, the outcome in assay [2] was inactive.
`CCN(CC)c1ccc2nc3c4ccccc4/c(=N\CCCCCC(=O)NCCCNC(=O)c4cc(Oc5ccc(NC(=O)Nc6ccc(Cl)c(C(F)(F)F)c6)cc5)ccn4)cc-3sc2c1`: the outcome in assay [1], in assay [3], in assay [4] and in assay [5] was Active. Besides, the result in assay [2] was inactive.
As usually defined, the IC50 is the concentration at which inhibition is half-maximal. Take `CNC(=O)c1cc(Oc2ccc(NC(=O)Nc3ccc(Cl)c(C(F)(F)F)c3)cc2)ccn1` [SORAFENIB]: the IC50 in assay [6] was found to be 9.49 µM.
With `CCN(CC)c1ccc2nc3c4ccccc4/c(=N\CCCCCC(=O)O)cc-3sc2c1`, the outcome in assay [2] was inactive. Besides, the result in assay [3] and in assay [5] was Active.
Regarding `CCN(CC)c1ccc2nc3c4ccccc4/c(=N\CCCCCCn4cc(CCNC(=O)c5cc(Oc6ccc(NC(=O)Nc7ccc(Cl)c(C(F)(F)F)c7)cc6)ccn5)nn4)cc-3sc2c1`, the outcome in assay [1], in assay [3], in assay [4] and in assay [5] was Active. For the same compound, in assay [2], the outcome was inactive.
Consider `CCN(CC)c1ccc2nc3c4ccccc4/c(=N\CCCCCCn4cc(CCC(=O)Nc5cccc(-c6cn(Cc7ccc(-c8ccc(OC)nc8)cc7)nn6)c5)nn4)cc-3sc2c1`, for which the outcome in assay [2] was inactive. Moreover, the result in assay [3] and in assay [5] was Active.
Consider `CCN(CC)c1ccc2nc3c4ccccc4/c(=N\CCCCCC(=O)Nc4cccc(-c5cn(Cc6ccc(-c7ccc(OC)nc7)cc6)nn5)c4)cc-3sc2c1`, for which, in assay [2], the result was inactive. The outcome in assay [3] and in assay [5] was Active.
`CCN(CC)c1ccc2nc3c4ccccc4/c(=N\CCCCCCN)cc-3sc2c1`: in assay [2], the outcome was inactive. Also, the IC50 in assay [7] was above 20 µM; in assay [8] it was 14.2 µM. Further, the outcome in assay [3] and in assay [5] was Active.
As to `CCN(CC)c1ccc2nc3c4ccccc4/c(=N\CCCCCCn4cc(CCCC(=O)Nc5cccc(-c6cn(Cc7ccc(-c8ccc(OC)nc8)cc7)nn6)c5)nn4)cc-3sc2c1`, in assay [2], the outcome was inactive. The result in assay [3] and in assay [5] was Active.
Consider `CCN(CC)c1ccc2nc3c4ccccc4/c(=N\CCCCCCNC(=O)CCC(=O)Nc4cccc(-c5cn(Cc6ccc(-c7ccc(OC)nc7)cc6)nn5)c4)cc-3sc2c1`, for which the result in assay [2] was inactive. In addition, the result in assay [3] and in assay [5] was Active.
For the compound `CCN(CC)c1ccc2nc3c4ccccc4/c(=N\CCCCCCNC(=O)CC(=O)Nc4cccc(-c5cn(Cc6ccc(-c7ccc(OC)nc7)cc6)nn5)c4)cc-3sc2c1`, in assay [2], the outcome was inactive. Besides, the outcome in assay [3] and in assay [5] was Active.
